Data on 2 molecules can be found in patent US8614103B2, “Compositions and methods for treating sphingosine-1-phosphate (S1P) related ocular diseases and conditions” (Lpath, Inc., priority 2006, dated 2013).

Assay [1] concerns human conjunctiva fibroblasts. The assay is described as follows: PAI-1 expression in conjunctiva fibroblasts. It counts as cell-based. The source says: Collagen is one of the primary structural proteins that supports all tissues in the body and is one of the main components of scar tissue. In the non-pathological setting, total collagen content within tissue is maintained via a balance between collagen production by fibroblasts and degradation by certain enzymes. A number of disorders that involve increased levels of scar tissue result, in part, from physiological and molecular processes that inhibit degradation of collagen that is need for scar formation. It was hypothesized that the ability of S1P to promote scar tissue formation may result from its ability to inhibit collagen degradation, thereby leading to net increases in scar tissue within organs. Therefore, the effects of S1P on expression of plasminogen activator inhibitor (PAI-1) in human conjunctiva fibroblasts were examined.

Assay [2] deals with human conjunctiva fibroblasts. The assay is described as follows: α-SMA expression in conjunctiva fibroblasts. The assay is classed as cell-based. Particulars: only at this concentration. The source says:
(§1) In many of these disorders, circulating growth factors and chemokines promote the transformation of normal ocular cells into fibrocontractile, scar tissue-producing cells that have been termed “myofibroblasts”. Normally, myofibroblasts are responsible for tissue repair as part of the wound healing response following injury. However altered number and function of myofibroblasts are implicated in diseases characterized by pathological scar tissue formation in the liver, skin, lung, kidney, heart and eyes. In the eye, transformation of retinal pigmented epithelial (RPE) cells to a myofibroblast phenotype is linked to formation of fibro-contractile membranes which cause retinal detachment and subsequent vision impairment. In addition, myofibroblast transformation of ocular fibroblasts can result in abnormal scar tissue production after eye injury leading to subsequent vision loss. Although many of the circulating protein factors in the eye that promote myofibroblast formation have been identified, nothing is known regarding the role of lysolipids such as S1P in this process. Therefore, we examined the effects of S1P on myofibroblast transformation of several human ocular cell lines.
(§2) In these experiments, the ability of S1P to promote α-SMA expression differed in a concentration dependent manner between the retinal pigmented epithelial cells and conjunctiva fibroblasts. […]

For assay [3], the system named is human retinal pigmented epithelial cells. Description: α-SMA expression in retinal pigmented epithelial cells. The assay is classed as cell-based. To be noted: back to basal levels at 10 μM.
Description: as §1, §2

The subject of a further assay is COLO 205 tumor. Description: SC COLO205 colorectal tumor xenograft in nude NCr mice. The assay is classed as in vivo, mouse. Particulars: LT1009 50 mg/kg ip q3d; Avastin 40 mg/kg iv q7d; Paclitaxel 15 mg/kg iv q1d×5. The procedure:
Nude mice were implanted sc near the right flank with one fragment per mouse of COLO 205 tumor from an in vivo passage. All treatments were initiated the day when 60 mice in each experiment established tumors ranging in size from approximately 100 to 200 mm3. […] Avastin was administered iv at a dosage of 40 mg/kg/dose on a q7d schedule, injected in a volume of 0.1 mL/20 g body weight. Paclitaxel (positive control), was administered iv at a dosage of 15 mg/kg/dose on a q1d×5 schedule, injected in a volume of 0.1 mL/10 g body weight.
(§3) Animals were observed daily for mortality. Tumor dimensions and body weights were collected twice weekly starting with the first day of treatment and including the day of study termination. When the median tumor in the vehicle-treated control group in each study reached approximately 4,000 mg, the study was terminated. Tumors from each animal were harvested, wet weights were recorded, tumors were processed for determination of microvascular densities (MVD) by CD-31 staining. Tumor weights (mg) were calculated using the equation for an ellipsoid sphere (l×w^2)/2=mm^3, where l and w refer to the larger and smaller dimensions collected at each measurement and assuming unit density (1 mm^3=1 mg).

A further assay relates to DU145 tumor. The assay is described as follows: SC DU145 prostate tumor xenograft in nude NCr mice. It counts as in vivo, mouse. To be noted: LT1009 50 mg/kg ip q2d; Avastin 20 mg/kg q4d; Paclitaxel 7.5 mg/kg q1d×5. The procedure: Nude mice were implanted sc near the right flank with one fragment per mouse of DU145 tumor from an in vivo passage. All treatments were initiated the day when 60 mice in each experiment established tumors ranging in size from approximately 100 to 200 mm^3. […] Paclitaxel and Avastin were administered iv and ip at a dosage of 7.5 mg/kg/dose and 20 mg/kg/dose, q1d×5 and q4d, respectively, injected in a volume of 0.1 mL/10 g body weight.
During the course of the study tumor growth was monitored by measuring the sc tumors on three axes and calculating the volume. At the end of the study final tumor weights and volumes were determined and then the mice were sacrificed, the tumors harvested. Microvascular densities (MVD) of the tumors were then determined by CD-31 staining.

The test system of another assay is HT29 tumor. Description: SC HT29 colorectal tumor xenograft in nude NCr mice. The assay is classed as in vivo, mouse. Particulars: LT1009 50 mg/kg ip q2d; Avastin 20 mg/kg q4d; 5-FU 75 mg/kg q4d. As for the experimental part:
Nude mice were implanted sc near the right flank with one fragment per mouse of HT29 tumor from an in vivo passage. All treatments were initiated the day when 60 mice in each experiment established tumors ranging in size from approximately 100 to 200 mm^3. There were ten mice per treatment group. […] 75 mg/kg 5-FU and 20 mg/kg Avastin were administered ip and iv at a dosage of 75 mg/kg/dose and 20 mg/kg/dose, respectively, q4d, injected in a volume of 0.1 mL/10 g body weight.
as §3, with “recorded, and” for “recorded,”, “MVD” for “microvascular densities (MVD)”

With `CCCCCCCCCCCCC/C=C/[C@@H](O)[C@@H](N)COP(=O)(O)O` [S1P, sphingosine-1-phosphate], the PAI-1 expression result in assay [1] is reported as “stimulates the PAI-1 expression in a dose-dependent manner”. Also, the figures for the “concentration at which a significant increase in α-SMA expression was observed” value in assay [2] and in assay [3] were 10 µM and 0.001 µM, respectively.

“Avastin: anti-angiogenic drug, bevacizumab (Avastin®, Genentech)”: the results for the “Final Tumor Weights” value in the assay with COLO 205 tumor, with DU145 tumor and with HT29 tumor were 1967.90 mg, 578 mg and 1927.44 mg, respectively. Further, in the assay with HT29 tumor, the “% Reduction compared to Vehicle-Treated Mice” value came out at 30%.
